Key:
rhinovirus B14 [1] = assay: Cytotoxic activity against HRV-14 in cell culture; format: functional, rhinovirus 14; details: Rhinovirus B
rhinovirus B14 [2] = assay: Antiviral activity against HRV-14 in cell culture; format: functional, organism-based; details: Rhinovirus B
[3] = target: T1, Human rhinovirus A protease (Human rhinovirus sp.) (UniProt Q4U254); assay: Binding affinity on human Rhinovirus 3C protease (rhinovirus serotype 14)
T1 sequence (whole entry): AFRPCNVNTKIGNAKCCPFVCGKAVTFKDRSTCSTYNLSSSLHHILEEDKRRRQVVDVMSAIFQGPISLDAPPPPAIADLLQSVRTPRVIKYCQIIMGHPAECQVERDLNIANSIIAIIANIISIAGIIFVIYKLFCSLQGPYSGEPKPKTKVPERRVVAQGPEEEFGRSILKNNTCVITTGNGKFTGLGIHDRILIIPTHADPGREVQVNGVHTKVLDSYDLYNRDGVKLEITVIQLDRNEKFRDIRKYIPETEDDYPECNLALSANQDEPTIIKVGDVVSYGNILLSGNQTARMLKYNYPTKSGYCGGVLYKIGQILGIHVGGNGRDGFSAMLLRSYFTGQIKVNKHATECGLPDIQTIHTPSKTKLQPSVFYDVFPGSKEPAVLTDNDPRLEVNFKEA

| SMILES | CC50 (rhinovirus B14 [1]) [µM] | EC50 (rhinovirus B14 [2]) [µM] | K obs / 1 [3] [M⁻¹ s⁻¹] |
| --- | --- | --- | --- |
| CCOC(=O)/C=C/[C@H](CCC(N)=O)NC(=O)[C@H](Cc1ccc(C#N)cc1)NC(=O)[C@H](CC(C)C)NC(=O)OCc1ccccc1 | > 320 | 5.6 | 10800 |
| CCOC(=O)/C=C/[C@H](CCC(N)=O)NC(=O)[C@H](CSC)NC(=O)[C@H](CC(C)C)NC(=O)OCc1ccccc1 | > 320 | 8.9 | 2900 |
| CCOC(=O)/C=C/[C@H](CCC(N)=O)NC(=O)[C@H](Cc1ccccc1)NC(=O)[C@H](CO)NC(=O)OCc1ccccc1 | > 320 | 1.8 | 39900 |
| CCOC(=O)/C=C/[C@H](CCC(N)=O)NC(=O)[C@H](Cc1ccc(O)cc1)NC(=O)[C@H](CC(C)C)NC(=O)OCc1ccccc1 | > 320 | 5.3 | 11300 |
| CCOC(=O)/C=C/[C@H](CCC(N)=O)NC(=O)[C@H](Cc1ccccc1)NC(=O)[C@H](CC(C)C)NC(=O)OCc1ccncc1 | > 320 | 56 | 12000 |
| CCOC(=O)/C=C/[C@H](CNC(N)=O)NC(=O)[C@H](Cc1ccccc1)NC(=O)[C@H](CC(C)C)NC(=O)OCc1ccccc1 | > 100 | 32 | 3500 |
| CCOC(=O)/C=C/[C@H](CCC(N)=O)NC(=O)[C@H](Cc1ccccc1)NC(=O)[C@H](CC(C)C)NC(=O)SC | > 320 | 1.1 | 69800 |
| CCOC(=O)/C=C/[C@H](CCC(N)=O)NC(=O)[C@H](Cc1ccccc1)NC(=O)[C@H](CC(C)C)NC(=O)c1ccc(Oc2ccccc2)cc1 | > 320 | 5.2 | 8000 |
| CCOC(=O)/C=C/[C@H](CC[S+](C)[O-])NC(=O)[C@H](Cc1ccccc1)NC(=O)[C@H](CC(C)C)NC(=O)OCc1ccccc1 (stereo partly specified) | > 100 | 1.6 | 2200 |
| CCOC(=O)/C=C/[C@H](CCC(N)=O)NC(=O)[C@H](Cc1ccccc1)NC(=O)[C@@H](NC(=O)OCc1ccccc1)C(C)(C)C | 178 | 0.32 | 39800 |
| CCOC(=O)/C=C/[C@H](CCC(N)=O)NC(=O)[C@H](Cc1ccccc1)NC(=O)[C@@H](NC(=O)OCc1ccccc1)C(C)C | > 320 | 0.38 | 62500 |
| CCOC(=O)/C=C/[C@H](CCC(=O)O)NC(=O)[C@H](Cc1ccccc1)NC(=O)[C@H](CC(C)C)NC(=O)OCc1ccccc1 | > 100 | 14 | 500 |
| CCOC(=O)/C=C/[C@H](CCC(N)=O)NC(=O)[C@H](Cc1ccccc1)NC(=O)[C@H](CCCCN)NC(=O)OCc1ccccc1 | > 320 | 205 | 18600 |
| CCOC(=O)/C=C/[C@H](CCC(N)=O)NC(=O)[C@H](Cc1ccccc1)NC(=O)[C@H](CC(=O)O)NC(=O)OCc1ccccc1 | > 320 | 2.4 | 35000 |
| CCOC(=O)/C=C/[C@H](CCC(N)=O)NC(=O)[C@H](Cc1ccccc1)NC(=O)[C@H](CCN1CCOCC1)NC(=O)OCc1ccccc1 | > 100 | 5.1 | 35000 |
| CCOC(=O)/C=C/[C@H](CO)NC(=O)[C@H](Cc1ccccc1)NC(=O)[C@H](CC(C)C)NC(=O)OCc1ccccc1 | 190 | > 190 | 0 |
| CCOC(=O)/C=C/[C@H](CCC(N)=O)NC(=O)[C@H](Cc1ccccc1)NC(=O)[C@H](CC(C)C)NC(=O)OCc1ccccc1 | > 320 | 0.54 | – |
| CCOC(=O)/C=C/[C@H](CCC(C)=O)NC(=O)[C@H](Cc1ccccc1)NC(=O)[C@H](CC(C)C)NC(=O)OCc1ccccc1 | > 100 | 1.6 | 1400 |
| CCOC(=O)/C=C/[C@H](CCC(N)=O)NC(=O)[C@H](Cc1ccc(C)cc1)NC(=O)[C@@H](NC(=O)SC1CCCC1)C(C)(C)C | – | 0.056 | – |
| CCOC(=O)/C=C/[C@H](CCC(N)=O)NC(=O)[C@H](Cc1ccccc1)NC(=O)[C@H](CC(C)C)NC(C)=O | > 320 | 14 | 3700 |
| CCOC(=O)/C=C/[C@H](CCC(N)=O)NC(=O)[C@H](Cc1ccccc1)NC(=O)[C@H](CC(C)C)NC(=O)N(C)Cc1ccccc1 | > 100 | 5.6 | 3200 |
| CCOC(=O)/C=C/[C@H](CCC(N)=O)NC(=O)[C@H](Cc1ccccc1)NC(=O)[C@H](CC(C)C)NC(=O)NCc1ccccc1 | > 100 | > 100 | 6900 |
| CCOC(=O)/C=C/[C@H](CCC(N)=O)NC(=O)[C@H](Cc1ccccc1)NC(=O)[C@@H](NC(=O)OCc1ccccc1)[C@H](C)SC(C)C | > 100 | 10 | 40000 |
| CCOC(=O)/C=C/[C@H](CCC(N)=O)NC(=O)[C@H](Cc1ccccc1)NC(=O)[C@H](CC(=O)N(C)C)NC(=O)OCc1ccccc1 | > 320 | 5.9 | 22600 |

| SMILES | CC50 (rhinovirus B14 [1]) [µM] | EC50 (rhinovirus B14 [2]) [µM] | K obs / 1 [3] [M⁻¹ s⁻¹] |
| --- | --- | --- | --- |
| CCOC(=O)/C=C/[C@H](CCC(N)=O)NC(=O)[C@H](Cc1ccccc1)NC(=O)[C@H](CCSC)NC(=O)OCc1ccccc1 | > 100 | 1.4 | 46200 |
| CCOC(=O)/C=C/[C@H](CCC(N)=O)NC(=O)[C@H](Cc1ccccc1)NC(=O)[C@H](CC1CCCCC1)NC(=O)OCc1ccccc1 | > 320 | 1.2 | 39000 |
| CCOC(=O)/C=C/[C@H](CCC(N)=O)NC(=O)[C@H](Cc1ncc[nH]1)NC(=O)[C@H](CC(C)C)NC(=O)OCc1ccccc1 | > 320 | 27 | 6800 |
| CCOC(=O)/C=C/[C@H](CCC(N)=O)NC(=O)[C@H](Cc1ccccc1)NC(=O)[C@H](CC(C)C)NC(=O)C(C)C | > 320 | 1 | 18800 |
| CCOC(=O)/C=C/[C@H](CCC(C)O)NC(=O)[C@H](Cc1ccccc1)NC(=O)[C@H](CC(C)C)NC(=O)OCc1ccccc1 (stereo partly specified) | > 100 | > 100 | 0 |
| CCOC(=O)/C=C/[C@H](CCC(N)=O)NC(=O)[C@H](Cc1ccccc1)NC(=O)[C@H](CC(C)C)NC(=O)OCc1ccccc1Cl | > 100 | 0.63 | 19000 |
| CCOC(=O)/C=C/[C@H](CCC(N)=O)NC(=O)[C@H](Cc1ccccc1)NC(=O)[C@H](CCc1ccccc1)NC(=O)OCc1ccccc1 | > 320 | 0.25 | 57000 |
| CCOC(=O)/C=C/[C@H](CCC(N)=O)NC(=O)[C@H](Cc1ccccc1)NC(=O)[C@H](CC(C)C)NC(=O)[C@@H](NC(C)=O)[C@@H](C)O | > 100 | > 100 | 4600 |
| CCOC(=O)/C=C/[C@H](CCC(N)=O)NC(=O)[C@H](Cc1ccccc1)NC(=O)[C@H](CC(C)C)NC(=O)[C@@H](NC(C)=O)C(C)C | > 100 | 63 | 26700 |
| CCOC(=O)/C=C/[C@H](CCC(N)=O)NC(=O)[C@H](Cc1ccccc1)NC(=O)[C@H](CCC(=O)O)NC(=O)OCc1ccccc1 | > 320 | 5.5 | 78900 |
| CCOC(=O)/C=C/[C@H](CNC(C)=O)NC(=O)[C@H](Cc1ccccc1)NC(=O)[C@H](CC(C)C)NC(=O)OCc1ccccc1 | > 320 | 2.2 | 800 |
| CCOC(=O)/C=C/[C@H](CCC(N)=O)NC(=O)[C@H](CC(C)C)NC(=O)[C@H](CC(C)C)NC(=O)OCc1ccccc1 | > 320 | 5.4 | 2300 |
| CCOC(=O)/C=C/[C@H](CCC(N)=O)NC(=O)[C@H](Cc1ccccc1)NC(=O)[C@H](CC(C)C)NC(=O)SC1CCCC1 | > 100 | 0.18 | 114000 |
| CCOC(=O)/C=C/[C@H](CCC(N)=O)NC(=O)[C@H](Cc1ccccc1)NC(=O)[C@H](Cc1ccccc1)NC(=O)OCc1ccccc1 | > 320 | 0.56 | 162000 |
| CCOC(=O)/C=C/[C@H](CCC(N)=O)NC(=O)[C@H](Cc1ccccc1)NC(=O)[C@@H](NC(=O)OCc1ccccc1)c1ccccc1 | – | – | 20700 |
| CCOC(=O)/C=C/[C@H](CCC(N)=O)NC(=O)[C@H](Cc1ccc(CO)cc1)NC(=O)[C@H](CC(C)C)NC(=O)OCc1ccccc1 | > 320 | 0.55 | 82300 |
| CCOC(=O)/C=C/[C@H](CCC(N)=O)NC(=O)C(NC(=O)[C@H](CC(C)C)NC(=O)OCc1ccccc1)[C@H](C)O (stereo partly specified) | > 320 | 56 | 1800 |
| CCOC(=O)/C=C/[C@H](CCC(N)=O)NC(=O)[C@H](Cc1nccn1C)NC(=O)[C@H](CC(C)C)NC(=O)OCc1ccccc1 | > 320 | 10 | 8900 |
| CCOC(=O)/C=C/[C@H](CCC(=O)NC)NC(=O)[C@H](Cc1ccccc1)NC(=O)[C@H](CC(C)C)NC(=O)OCc1ccccc1 | > 100 | 5.6 | 750 |
| CCOC(=O)/C=C/[C@H](CCC(N)=O)NC(=O)[C@H](Cc1ccccc1)NC(=O)[C@H](CSc1ccccc1)NC(=O)OCc1ccccc1 | > 320 | 0.12 | 141000 |
| CCOC(=O)/C=C/[C@H](CCS(C)(=O)=O)NC(=O)[C@H](Cc1ccccc1)NC(=O)[C@H](CC(C)C)NC(=O)OCc1ccccc1 | > 100 | > 100 | 60 |
| CCOC(=O)/C=C/[C@H](CCC(N)=O)NC(=O)[C@H](Cc1ccccc1)NC(=O)[C@@H](NC(=O)OCc1ccccc1)C(C)(C)O | > 100 | 0.66 | 98000 |
| CCOC(=O)/C=C/[C@H](CCC(=O)NC(c1ccccc1)(c1ccccc1)c1ccccc1)NC(=O)[C@H](Cc1ccccc1)NC(=O)[C@H](CC(C)C)NC(=O)OCc1ccccc1 | > 320 | 100 | 0 |

From ChEMBL document CHEMBL1131037, “Structure-based design, synthesis, and biological evaluation of irreversible human rhinovirus 3C protease inhibitors. 2. Peptide structure-activity studies” (J Med Chem, 1998)
